Earlier results as cited in patent publication US7547776B1, “Process for the production of fludarabine-phosphate lithium, sodium, potassium, calcium and magnesium salts and purification process for the production of fludarabine-phosphate and fludarabine-phosphate with a purity of at least 99.5%” (Bayer Schering Pharma Aktiengesellschaft, priority 1997, dated 2009).

Conditions: in water at approximately 75° C. (recrystallization)

- thermal stability in water: thermally unstable
SMILES: Nc1nc(F)nc2c1ncn2[C@@H]1O[C@H](COP(=O)(O)O)[C@@H](O)[C@@H]1O [fludarabine-phosphate, 9-β-D-arabinofuranosyl-2-fluoroadenine-5′-O-dihydrogenphosphate]
